Laboratory results taken from patent US7109174B2, “Anticonvulsant derivatives useful for preventing the development of type II diabetes mellitus and syndrome X” (Ortho-McNeil Pharmaceutical, Inc., priority 2000, dated 2006).

Experiments:
[1] = system: ob/ob mice; assay: ob/ob mice second study: topiramate in food for 118 days; skin lesions, glucose, insulin, glycosylated hemoglobin, body weight; type: in vivo; design: Glycosylated hemoglobin: unit not given here; settings: for Skin lesions Mild (mice) / Skin lesions Moderate (mice) / Skin lesions Severe (mice) / Skin lesions Total (mice): 180 mg/kg/day, N = 9
Description: It is known that ob/ob mice when allowed to eat ad libitum, develop abnormally high blood levels of insulin (hyperinsulinemia), glucose (hyperglycemia), lesions of the skin, and a high level of glycosylated hemoglobin, all of which are hallmark signs of Type II diabetes mellitus (R. R. HENRY, Ann. Intern. Med. 1996, 124, 97–103; G. W. EDELSON, Clin. Podiatr. Med. Surg. 1998, 15, 41–48; P. R. JOHNSON, M. R. GREENWOOD, B. A. HORWITZ and J. S. STERN, Annu. Rev. Nutr. 1991, 11, 325–353). Based on this knowledge of the ob/ob mouse model, two studies were designed to determine the effect of compounds of formula (I) in these mice models.
In the second study, a uniform population of mice was divided into two groups. In one group of control mice, no topiramate was added to the food for the entire 118-day period. In a second group, topiramate was added to the food in amounts sufficient to give a daily dose of 60 mg/kg for 6 days, then a daily dose of 180 mg/kg for 112 days. During the course of the dosing period the mice were examined two-times a week for skin lesions. When skin lesions were evident, the severity was estimated based on the number and size of the lesions, and given a score ranging from mild to severe (Table 2). For four of the control mice their health deteriorated to the point that they either died or had to be euthanized. Three of these four control mice had lesions (two mice were classified as severe and one mice as mild). […] By comparison none of the nine mice treated with topiramate ever developed skin lesions (Table 2). After the 118-day period was completed, all surviving mice were sacrificed and blood was obtained and prepared for subsequent analysis of plasma glucose and insulin, and glycosylated hemoglobin. […] The body weight gain was similar in both groups throughout the study. Therfore, the beneficial effects of topiramate on the biological markers of the disease cannot be secondary to the potential beneficial effect that might arise from a loss of body eight.

[2] = system: male Zucker diabetic fatty (ZDF/Gmi-Fa) rats; assay: Plasma glucose, triglycerides and body weight change in male Zucker diabetic fatty rats, orally dosed for 14 days; type: in vivo; settings: for Body Weight Change / Plasma Glucose Levels Plasma Conc. / Plasma Triglyceride Levels Plasma Conc.: ± sem
Protocol: Six week old male Zucker diabetic fatty (ZDF/Gmi-Fa) rats were purchased from Genetic Models, Inc. Indianapolis, Ind. The rats were housed in groups of four in hanging metal cages, at an ambient temperature of 68–72° F., on a 12 hour-12 hour light-dark schedule and given access to water and food ad libitum. Lean rats (ZDF/GMI−+/+or +/fa) were used as normal, non-diabetic controls. The diet was comprised of LabDiet 5008 breeding formula (PMI Nutrition Int'l, Brentwood, Mo.). The vehicle, used as a reference and for test compounds, was 0.5% methylcellulose dissolved in water. The compounds were either fully dissolved or uniformly suspended in the vehicle when administered to the […]. The rats were randomly separated into four groups of eight. The groups were as follows: one vehicle control group and three groups that each received one of three doses of TPM (30, 100, or 300 mg/kg, respectively). Topiramate or vehicle was administered orally by gavage once a day, for 14 consecutive days, during the 8th hour of the light portion of the light-dark cycle. At the start of the study, the rats were bled through a tail vein and plasma glucose and triglyceride levels were determined. Between 18 and 24 hours after the last dose was administered, blood samples were again taken via tail clip on day 1 (fed animals) and day 14 (fed animals). The plasma was collected into 2 mL heparinized snap-top polypropylene tubes, then placed in ice. Plasma was separated from blood cells by centrifugation (20 minutes at 1800 g). For samples not assayed immediately, the plasma was transferred into 96-well plates and frozen at −70° C. Body weights for the animals were determined at the start of the study and again after 14 days oral dosing. Glucose and triglycerides were assayed using standard procedures for blood clinical laboratories. Specifically, the samples were analyzed using an automated Hitachi 717 autoanalyzer (Boehringer Mannheim/Hitachi 717 Autoanalyzer, Boehringer Mannheim Laboratory Systems Division, Indianapolis, Ind.). A statistical analysis of data for the drug-treated groups compared to data for the vehicle group was performed using the one-way analysis of variance (ANOVA) with Dunnett's Multiple Comparisons test. Following the procedure described above, the effect of topiramate on plasma glucose, triglyceride levels and body weight changes was determined for male Zucker rats, orally dosed for 14 days, with results as listed in Table 6–8. The abbreviation N represents the number of animals per study group.

[3] = system: rodent models of epilepsy; settings: several rodent models of epilepsy; cited from earlier work
[4] = 30 mg/kg oral once a day, 14 days
[5] = 100 mg/kg oral once a day, 14 days
[6] = 100 mg/kg oral once a day, 14 days, P < 0.01
[7] = 300 mg/kg oral once a day, 14 days
[8] = 300 mg/kg oral once a day, 14 days, P < 0.01

SMILES: CC1(C)O[C@@H]2[C@@H](CO[C@@]3(COS(N)(=O)=O)OC(C)(C)O[C@@H]23)O1 [Topiramate, 2,3:4,5-bis-O-(1-methylethylidene)-β-D-fructopyranose sulfamate]
- level of blood glucose ([1]; 60 mg/kg/day 6 days then 180 mg/kg/day 112 days in food, end of study, mean±SEM, n=9, P<0.05): 131 ± 13 mg/dL
- Skin lesions Mild (mice) ([1]; Day 41): 0
- Skin lesions Moderate (mice) ([1]; Day 41): 0
- Skin lesions Severe (mice) ([1]; Day 41): 0
- Skin lesions Total (mice) ([1]; Day 41): 0
- Skin lesions Mild (mice) ([1]; Day 53): 0
- Skin lesions Moderate (mice) ([1]; Day 53): 0
- Skin lesions Severe (mice) ([1]; Day 53): 0
- Skin lesions Total (mice) ([1]; Day 53): 0
- Skin lesions Mild (mice) ([1]; Day 61): 0
- Skin lesions Moderate (mice) ([1]; Day 61): 0
- Skin lesions Severe (mice) ([1]; Day 61): 0
- Skin lesions Total (mice) ([1]; Day 61): 0
- Skin lesions Mild (mice) ([1]; Day 70): 0
- Skin lesions Moderate (mice) ([1]; Day 70): 0
- Skin lesions Severe (mice) ([1]; Day 70): 0
- Skin lesions Total (mice) ([1]; Day 70): 0
- Skin lesions Mild (mice) ([1]; Day 83): 0
- Skin lesions Moderate (mice) ([1]; Day 83): 0
- Skin lesions Severe (mice) ([1]; Day 83): 0
- Skin lesions Total (mice) ([1]; Day 83): 0
- Skin lesions Mild (mice) ([1]; Day 96): 0
- Skin lesions Moderate (mice) ([1]; Day 96): 0
- Skin lesions Severe (mice) ([1]; Day 96): 0
- Skin lesions Total (mice) ([1]; Day 96): 0
- Skin lesions Mild (mice) ([1]; Day 97): 0
- Skin lesions Moderate (mice) ([1]; Day 97): 0
- Skin lesions Severe (mice) ([1]; Day 97): 0
- Skin lesions Total (mice) ([1]; Day 97): 0
- Skin lesions Mild (mice) ([1]; Day 105): 0
- Skin lesions Moderate (mice) ([1]; Day 105): 0
- Skin lesions Severe (mice) ([1]; Day 105): 0
- Skin lesions Total (mice) ([1]; Day 105): 0
- Skin lesions Mild (mice) ([1]; Day 118): 0
- Skin lesions Moderate (mice) ([1]; Day 118): 0
- Skin lesions Severe (mice) ([1]; Day 118): 0
- Skin lesions Total (mice) ([1]; Day 118): 0
- body weight ([1]; day 118): 55.1 ± 1.3 g
- body weight ([1]; day −1, n=9): 42.8 ± 1.1 g
- insulin levels versus control ([1]; end of 118-day study): did not differ
- Glycosylated hemoglobin ([1]; end of 118-day study, mean±SEM, n=9, P<0.01): 3.16±0.1
- mice that ever developed skin lesions ([1]; nine topiramate-treated mice, 118-day period): none
- body weight gain versus control ([1]; throughout the 118-day study): similar
- blood glucose difference between groups ([1]; topiramate-treated versus control at end of 118-day study): 52%
- Glycosylated hemoglobin reduction with topiramate treatment ([1]; versus surviving control mice, end of 118-day study): 48%
- Plasma Glucose % Change from Diabetic Control [2, 4]: −24.9%
- Plasma Glucose % of Diabetic Control [2, 4]: 75.1%
- Plasma Triglyceride % Change from Diabetic Control [2, 4]: −20.4%
- Plasma Triglyceride % of Diabetic Control [2, 4]: 79.6%
- Body Weight Change [2, 4]: +95.5 ± 7.2 Gms
- Plasma Glucose Levels Plasma Conc. ([2]; 30 mg/kg oral once a day, 14 days, P < 0.01): 247.4 ± 17.8 mg/dL
- Plasma Triglyceride Levels Plasma Conc. ([2]; 30 mg/kg oral once a day, 14 days, P < 0.05): 482.4 ± 10.5 mg/dL
- body weight change accompanying the reduction in blood glucose ([2]; 30 mg/kg/day): without significant body weight change
- decrease in plasma triglyceride levels ([2]; 30 mg/kg/day, P<0.05): 20%
- Plasma Glucose % Change from Diabetic Control [2, 5]: −47.5%
- Plasma Glucose % of Diabetic Control [2, 5]: 52.5%
- Plasma Triglyceride % Change from Diabetic Control [2, 5]: −17.7%
- Plasma Triglyceride % of Diabetic Control [2, 5]: 82.3%
- Plasma Triglyceride Levels Plasma Conc. [2, 5]: 498.6 ± 58.8 mg/dL
- Body Weight Change [2, 6]: +75.7 ± 2.7 (P < 0.01) Gms
- Plasma Glucose Levels Plasma Conc. [2, 6]: 170.3 ± 14.7 mg/dL
- Plasma Glucose % Change from Diabetic Control [2, 7]: −49.5%
- Plasma Glucose % of Diabetic Control [2, 7]: 50.5%
- Plasma Triglyceride % Change from Diabetic Control [2, 7]: −30.2%
- Plasma Triglyceride % of Diabetic Control [2, 7]: 69.8%
- Body Weight Change [2, 8]: +64.4 ± 6.0 (P < 0.01) Gms
- Plasma Glucose Levels Plasma Conc. [2, 8]: 166.4 ± 11.1 mg/dL
- Plasma Triglyceride Levels Plasma Conc. [2, 8]: 423.0 ± 33.6 mg/dL
- decrease in plasma triglyceride levels ([2]; 300 mg/kg/day, P<0.01): 30%
- decrease in blood glucose levels ([2]; 30 to 300 mg/kg, 14 days, P<0.01): 25–50%
- seizure block [3]: effectively block seizures
